The source of these data is BindingDB's records for doi:10.1021/acs.jmedchem.8b00642 (Korea Institute of Science and Technology, 2018).

The structures appear in SMILES notation.

The target in the experiment is 5-hydroxytryptamine receptor 7 (Homo sapiens, UniProt P34969). Put plainly: Displacement of [3H]LSD from human 5-HT7 receptor expressed in HEK cell membranes after 1.5 hrs by microbeta scintillation counting method. (Loss of bound radioactivity is the signal in a displacement assay; it reports binding, not function.)
Chain of 5-hydroxytryptamine receptor 7 (P34969 whole entry): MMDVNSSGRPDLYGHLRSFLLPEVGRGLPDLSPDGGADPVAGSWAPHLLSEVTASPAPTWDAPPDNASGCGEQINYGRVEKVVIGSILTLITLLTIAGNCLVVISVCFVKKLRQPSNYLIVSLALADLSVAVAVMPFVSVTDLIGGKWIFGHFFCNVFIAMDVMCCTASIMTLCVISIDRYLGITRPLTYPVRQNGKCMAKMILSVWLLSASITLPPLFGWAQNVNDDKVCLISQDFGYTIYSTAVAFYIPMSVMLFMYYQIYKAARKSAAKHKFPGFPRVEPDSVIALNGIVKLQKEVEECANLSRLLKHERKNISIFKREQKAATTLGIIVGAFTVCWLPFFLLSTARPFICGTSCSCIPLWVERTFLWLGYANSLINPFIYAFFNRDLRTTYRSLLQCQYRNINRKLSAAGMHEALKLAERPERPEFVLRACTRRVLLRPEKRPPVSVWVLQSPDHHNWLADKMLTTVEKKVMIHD

In the case of `Clc1ccc(-c2n[nH]c3c2CCNCC3)cc1`, the Ki came to 32 nM.

The term Ki denotes the equilibrium dissociation constant of an inhibitor or competing ligand from its target.
